Laboratory results: patent publication US9273046B2, “Fused tricyclic compounds as Raf kinase inhibitors” (BeiGene, LTD., priority 2011, dated 2016)
Where two headings read alike, the source gives them in different places.

Legend:
B-Raf (V600E) = B-Raf (V600E) (Homo sapiens (Human), UniProt P15056, V600E); experiment: Raf IC50 assay, time-resolved fluorescence energy transfer (TR-FRET), B-Raf; assay type: biochemical
Experimental: The enzyme was incubated with the compounds at room temperature for 60 minutes and the reactions were initiated by the addition of ATP and GST-MEK1. […] Plates were sealed and incubated at room temperature for 2 hours, and then the TR-FRET signals were read on BMG PHERAstar FS instrument. The IC50 for each compound was calculated by non linear regression by Graphpad Prism software.

C-Raf (Y340D/Y341D) = C-Raf (Y340D/Y341D) (Homo sapiens (Human), UniProt P04049, Y340D/Y341D); experiment: Raf IC50 assay, time-resolved fluorescence energy transfer (TR-FRET), C-Raf; assay type: biochemical; details: 0.5 nM C-Raf, 0.1 mM ATP, GST-tagged MEK1 substrate, 60 min preincubation
Chain of C-Raf (Y340D/Y341D) (P04049 whole entry Y340D/Y341D): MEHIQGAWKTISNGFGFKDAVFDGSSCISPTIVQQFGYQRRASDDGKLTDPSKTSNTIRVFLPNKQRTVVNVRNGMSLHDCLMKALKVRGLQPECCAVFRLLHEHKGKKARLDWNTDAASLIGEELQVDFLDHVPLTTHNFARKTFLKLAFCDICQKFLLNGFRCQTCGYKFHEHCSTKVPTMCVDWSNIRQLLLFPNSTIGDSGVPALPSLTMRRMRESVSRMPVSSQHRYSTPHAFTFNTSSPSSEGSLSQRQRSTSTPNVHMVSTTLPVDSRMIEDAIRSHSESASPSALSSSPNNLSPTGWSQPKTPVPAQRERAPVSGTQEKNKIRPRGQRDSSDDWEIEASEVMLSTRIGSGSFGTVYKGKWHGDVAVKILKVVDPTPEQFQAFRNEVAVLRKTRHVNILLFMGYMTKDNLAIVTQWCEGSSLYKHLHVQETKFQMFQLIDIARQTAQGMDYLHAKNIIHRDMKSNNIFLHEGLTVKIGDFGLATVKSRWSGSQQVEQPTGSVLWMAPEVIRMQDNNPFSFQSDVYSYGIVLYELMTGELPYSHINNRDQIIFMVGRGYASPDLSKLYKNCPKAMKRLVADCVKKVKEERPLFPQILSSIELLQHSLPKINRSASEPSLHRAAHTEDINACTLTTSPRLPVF
Experimental: The assay was carried out in reactions (10 μL) containing 0.0625 nM B-Raf or 0.5 nM C-Raf, 25 mM Tris pH7.4, 10 mM MgCl2, 0.5 mM EGTA, 0.5 mM […], 5 mM beta-glycerophosphate, 0.01% Triton X-100, 2.5 mM DTT, 0.1% BSA, 0.1 mM ATP, 13.7 nM GST-tagged MEK1 (Full-length protein with K97R mutation, recombinant protein purified from bacterial expression system) and 0-5 μM compounds disclosed herein (final concentration of 1% DMSO). The enzyme was incubated with the compounds at room temperature for 60 minutes and the reactions were initiated by the addition of ATP and GST-MEK1. After incubating at room temperature for 60 minutes, an equal volume of stop buffer containing 25 mM Tris pH7.4, 400 mM KF, 50 mM EDTA, 0.01% BSA, 0.01% Triton X-100, 1 test of Eu3+ Cryptate-conjugated rabbit polyclonal antibody anti-Phospho MEK1/2 (Ser217/221) and 1 test of d2-conjugated mouse monoclonal antibody anti-glutathione S-transferase was added to stop the reactions. Plates were sealed and incubated at room temperature for 2 hours, and then the TR-FRET signals were read on BMG PHERAstar FS instrument. The IC50 for each compound was calculated by non linear regression by Graphpad Prism software.

[1] = 0.0625 nM B-Raf, 0.1 mM ATP, GST-tagged MEK1 substrate, 60 min preincubation, read-out: B-Raf (V600E) IC50

Chain of B-Raf (V600E) (P15056 whole entry V600E): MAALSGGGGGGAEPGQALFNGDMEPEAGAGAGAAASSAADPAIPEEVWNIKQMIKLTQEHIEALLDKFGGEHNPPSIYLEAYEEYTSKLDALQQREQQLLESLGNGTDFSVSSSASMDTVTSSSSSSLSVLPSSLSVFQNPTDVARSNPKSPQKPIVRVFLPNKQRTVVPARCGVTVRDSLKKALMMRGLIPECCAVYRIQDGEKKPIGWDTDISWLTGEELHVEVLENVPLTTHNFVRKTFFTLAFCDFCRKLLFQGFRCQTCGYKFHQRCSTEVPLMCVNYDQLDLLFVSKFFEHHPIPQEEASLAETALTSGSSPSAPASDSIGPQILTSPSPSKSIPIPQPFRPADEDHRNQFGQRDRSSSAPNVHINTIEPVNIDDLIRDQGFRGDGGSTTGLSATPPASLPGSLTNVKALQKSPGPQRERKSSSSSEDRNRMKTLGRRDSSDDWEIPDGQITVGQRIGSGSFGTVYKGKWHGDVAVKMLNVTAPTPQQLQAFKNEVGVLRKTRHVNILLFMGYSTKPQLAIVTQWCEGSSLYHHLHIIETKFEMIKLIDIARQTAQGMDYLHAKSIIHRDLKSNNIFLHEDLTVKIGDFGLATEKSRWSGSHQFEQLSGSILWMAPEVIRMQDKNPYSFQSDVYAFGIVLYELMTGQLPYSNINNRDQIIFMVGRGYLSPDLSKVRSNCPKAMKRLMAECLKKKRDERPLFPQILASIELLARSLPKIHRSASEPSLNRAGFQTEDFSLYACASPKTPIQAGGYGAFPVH

O=C1CCc2c(Oc3ccc4c(c3)C3C(C4)C3c3nc4ccccc4[nH]3)ccnc2N1 (racemic) [Compound 1.1, (±)-exo-5-((1-(1H-benzo[d]imidazol-2-yl)-1,1a,6,6a-tetrahydrocyclopropa[a]inden-3-yl)oxy)-3,4-dihydro-1,8-naphthyridin-2(1H)-one]
IC50 (B-Raf (V600E); [1]): 11 nM

O=C1CCc2c(Oc3ccc4c(c3)C3C(C4)C3c3nc4ccccc4s3)ccnc2N1 (racemic) [Compound 1.3, (±)-exo-5-((1-(benzo[d]thiazol-2-yl)-1,1a,6,6a-tetrahydrocyclopropa[a]inden-3-yl)oxy)-3,4-dihydro-1,8-naphthyridin-2(1H)-one]
IC50 (B-Raf (V600E); [1]): 88 nM | IC50 (C-Raf (Y340D/Y341D)): 5.5 nM

O=C1CCc2c(Oc3ccc4c(c3)C3C(O4)C3c3nc4ccccc4[nH]3)ccnc2N1 (racemic) [Compound 2.1, (±)-exo-5-((1-(1H-benzo[d]imidazol-2-yl)-1a,6b-dihydro-1H-cyclopropa[b]benzofuran-5-yl)oxy)-3,4-dihydro-1,8-naphthyridin-2(1H)-one]
IC50 (B-Raf (V600E); [1]): 3.1 nM | IC50 (C-Raf (Y340D/Y341D)): 0.3 nM

O=C1CCc2c(Oc3ccc4c(c3)C3C(O4)C3c3nc4ccc(O)cc4[nH]3)ccnc2N1 (racemic) [Compound 2.27, (±)-exo-5-((1-(6-hydroxy-1H-benzo[d]imidazol-2-yl)-1a,6b-dihydro-1H-cyclopropa[b]benzofuran-5-yl)oxy)-3,4-dihydro-1,8-naphthyridin-2(1H)-one]
IC50 (B-Raf (V600E); [1]): 2.5 nM | IC50 (C-Raf (Y340D/Y341D)): < 0.25 nM

O=C1CCc2c(Oc3ccc4c(c3)C3C(O4)C3c3nc(-c4ccccc4)no3)ccnc2N1 (racemic) [Compound 2.29, (±)-exo-5-((1-(3-phenyl-1,2,4-oxadiazol-5-yl)-1a,6b-dihydro-1H-cyclopropa[b]benzofuran-5-yl)oxy)-3,4-dihydro-1,8-naphthyridin-2(1H)-one]
IC50 (B-Raf (V600E); [1]): 3.2 nM | IC50 (C-Raf (Y340D/Y341D)): < 0.25 nM

O=C1CCc2c(Oc3ccc4c(c3)C3C(O4)C3c3nc(-c4ccccc4)c[nH]3)ccnc2N1 (racemic) [Compound 2.30, (±)-exo-5-((1-(4-phenyl-1H-imidazol-2-yl)-1a,6b-dihydro-1H-cyclopropa[b]benzofuran-5-yl)oxy)-3,4-dihydro-1,8-naphthyridin-2(1H)-one]
IC50 (B-Raf (V600E); [1]): 0.72 nM | IC50 (C-Raf (Y340D/Y341D)): < 0.25 nM

O=C1CCc2c(Oc3ccc4c(c3)C3C(O4)C3c3nc4cc(C(F)(F)F)ccc4n3CCO)ccnc2N1 (racemic) [Compound 2.34, (±)-exo-5-((1-(1-(2-hydroxyethyl)-5-(trifluoromethyl)-1H-benzo[d]imidazol-2-yl)-1a,6b-dihydro-1H-cyclopropa[b]benzofuran-5-yl)oxy)-3,4-dihydro-1,8-naphthyridin-2(1H)-one]
IC50 (B-Raf (V600E); [1]): 30 nM

O=C1CCc2c(Oc3cc4c(cc3Cl)OC3C(c5nc6ccc(C(F)(F)F)cc6[nH]5)C43)ccnc2N1 (racemic) [Compound 2.36, (±)-exo-5-((4-chloro-1-(6-(trifluoromethyl)-1H-benzo[d]imidazol-2-yl)-1a,6b-dihydro-1H-cyclopropa[b]benzofuran-5-yl)oxy)-3,4-dihydro-1,8-naphthyridin-2(1H)-one]
IC50 (B-Raf (V600E); [1]): 117 nM | IC50 (C-Raf (Y340D/Y341D)): 32 nM

CNC(=O)c1cc(Oc2ccc3c(c2)C2C(O3)C2c2nc3ccc(C(F)(F)F)cc3[nH]2)ccn1 (racemic) [Compound 3.1, (±)-exo-N-methyl-4-((1-(6-(trifluoromethyl)-1H-benzo[d]imidazol-2-yl)-1a,6b-dihydro-1H-cyclopropa[b]benzofuran-5-yl)oxy)picolinamide]
IC50 (C-Raf (Y340D/Y341D)): 6.5 nM

FC(F)(F)c1ccc2nc(C3C4Oc5ccc(Oc6ccncn6)cc5C43)[nH]c2c1 (racemic) [Compound 3.2, (±)-exo-2-(5-(pyrimidin-4-yloxy)-1a,6b-dihydro-1H-cyclopropa[b]benzofuran-1-yl)-6-(trifluoromethyl)-1H-benzo[d]imidazole]
IC50 (C-Raf (Y340D/Y341D)): 223 nM

FC(F)(F)c1ccc2nc(C3C4Oc5ccc(Oc6ccnc7[nH]ccc67)cc5C43)[nH]c2c1 (racemic) [Compound 3.3, (±)-exo-2-(5-((1H-pyrrolo[2,3-b]pyridin-4-yl)oxy)-1a,6b-dihydro-1H-cyclopropa[b]benzofuran-1-yl)-6-(trifluoromethyl)-1H-benzo[d]imidazole]
IC50 (B-Raf (V600E); [1]): 522 nM | IC50 (C-Raf (Y340D/Y341D)): 104 nM

FC(F)(F)c1ccc2nc(C3C4Oc5ccc(Oc6ccnc(-c7nc(C(F)(F)F)c[nH]7)c6)cc5C43)[nH]c2c1 (racemic) [Compound 3.4, (±)-exo-6-(trifluoromethyl)-2-(5-((2-(4-(trifluoromethyl)-1H-imidazol-2-yl)pyridin-4-yl)oxy)-1a,6b-dihydro-1H-cyclopropa[b]benzofuran-1-yl)-1H-benzo[d]imidazole]
IC50 (B-Raf (V600E); [1]): 291 nM | IC50 (C-Raf (Y340D/Y341D)): 56 nM

FC(F)(F)c1ccc2nc(C3C4Oc5ccc(Oc6ccncc6)cc5C43)[nH]c2c1 (racemic) [Compound 3.6, (±)-exo-2-(5-(pyridin-4-yloxy)-1a,6b-dihydro-1H-cyclopropa[b]benzofuran-1-yl)-6-(trifluoromethyl)-1H-benzo[d]imidazole]
IC50 (B-Raf (V600E); [1]): 518 nM | IC50 (C-Raf (Y340D/Y341D)): 86 nM

O=C1Nc2nccc(Oc3ccc4c(c3)C3C(O4)C3c3nc4ccc(C(F)(F)F)cc4[nH]3)c2CO1 (racemic) [Compound 3.7, (±)-exo-5-((1-(6-(trifluoromethyl)-1H-benzo[d]imidazol-2-yl)-1a,6b-dihydro-1H-cyclopropa[b]benzofuran-5-yl)oxy)-1H-pyrido[2,3-d][1,3]oxazin-2(4H)-one]
IC50 (B-Raf (V600E); [1]): 26 nM | IC50 (C-Raf (Y340D/Y341D)): 3.2 nM

O=C1CCc2c(Oc3ccc4c(c3)C3C(C4)C3C(=O)O)ccnc2N1 (racemic) [Intermediate I, (±)-exo-3-((7-Oxo-5,6,7,8-tetrahydro-1,8-naphthyridin-4-yl)oxy)-1,1a,6,6a-tetrahydrocyclopropa[a]indene-1-carboxylic acid]
IC50 (B-Raf (V600E)): > 5000 nM | IC50 (C-Raf (Y340D/Y341D)): > 5000 nM

O=C1CCc2c(Oc3ccc4c(c3)C3C(O4)C3C(=O)O)ccnc2N1 (racemic) [Intermediate II, (±)-exo-5-((7-Oxo-5,6,7,8-tetrahydro-1,8-naphthyridin-4-yl)oxy)-1a,6b-dihydro-1H-cyclopropa[b]benzofuran-1-carboxylic acid]
IC50 (B-Raf (V600E)): > 5000 nM | IC50 (C-Raf (Y340D/Y341D)): 2910 nM

O=C1CCc2c(Oc3ccc4c(c3)[C@H]3[C@@H](O4)[C@@H]3c3nc4ccc(C(F)(F)F)cc4[nH]3)ccnc2N1 [Compound 2.2a]
IC50 (B-Raf (V600E); [1]): 6.7 nM | IC50 (C-Raf (Y340D/Y341D)): 1.2 nM

O=C1CCc2c(Oc3ccc4c(c3)[C@@H]3[C@H](O4)[C@H]3c3nc4ccc(C(F)(F)F)cc4[nH]3)ccnc2N1 [Compound 2.2b, 5-(((1R,1aS,6bR)-1-(6-(trifluoromethyl)-1H-benzo[d]imidazol-2-yl)-1a,6b-dihydro-1H-cyclopropa[b]benzofuran-5-yl)oxy)-3,4-dihydro-1,8-naphthyridin-2(1H)-one]
IC50 (B-Raf (V600E); [1]): 53 nM | IC50 (C-Raf (Y340D/Y341D)): 8.8 nM

Cc1cc2[nH]c([C@@H]3[C@H]4Oc5ccc(Oc6ccnc7c6CCC(=O)N7)cc5[C@H]43)nc2cc1F [Compound 2.4a]
IC50 (C-Raf (Y340D/Y341D)): 0.54 nM

O=C1CCc2c(Oc3ccc4c(c3)[C@@H]3[C@H](O4)[C@H]3c3nc4cc(Cl)c(C(F)(F)F)cc4[nH]3)ccnc2N1 [Compound 2.5a]
IC50 (C-Raf (Y340D/Y341D)): 21 nM

O=C1CCc2c(Oc3ccc4c(c3)[C@H]3[C@@H](O4)[C@@H]3c3nc4cc(Cl)c(C(F)(F)F)cc4[nH]3)ccnc2N1 [Compound 2.5b]
IC50 (C-Raf (Y340D/Y341D)): 2.5 nM

N#Cc1ccc2nc(C3C4Oc5ccc(Oc6ccnc7c6CCC(=O)N7)cc5C43)[nH]c2c1 (stereo not drawn) [Compound 2.6]
IC50 (B-Raf (V600E); [1]): 22 nM | IC50 (C-Raf (Y340D/Y341D)): 4.5 nM

O=C1CCc2c(Oc3ccc4c(c3)C3C(O4)C3c3nc4ccc(F)cc4[nH]3)ccnc2N1 (stereo not drawn) [Compound 2.7]
IC50 (B-Raf (V600E); [1]): 10 nM | IC50 (C-Raf (Y340D/Y341D)): 2.1 nM

Cc1ccc2nc(C3C4Oc5ccc(Oc6ccnc7c6CCC(=O)N7)cc5C43)[nH]c2c1 (stereo not drawn) [Compound 2.8]
IC50 (B-Raf (V600E); [1]): 3.7 nM | IC50 (C-Raf (Y340D/Y341D)): 0.71 nM

O=C1CCc2c(Oc3ccc4c(c3)C3C(O4)C3c3nc4ccncc4[nH]3)ccnc2N1 (stereo not drawn) [Compound 2.9]
IC50 (B-Raf (V600E); [1]): 42 nM | IC50 (C-Raf (Y340D/Y341D)): 4.5 nM

O=C1CCc2c(Oc3ccc4c(c3)C3C(O4)C3c3nc4c(Cl)cc(C(F)(F)F)cc4[nH]3)ccnc2N1 (stereo not drawn) [Compound 2.10]
IC50 (B-Raf (V600E); [1]): 80 nM | IC50 (C-Raf (Y340D/Y341D)): 25 nM

O=C1CCc2c(Oc3ccc4c(c3)C3C(O4)C3c3nc4cc(F)c(F)cc4[nH]3)ccnc2N1 (stereo not drawn) [Compound 2.11]
IC50 (B-Raf (V600E); [1]): 5.9 nM | IC50 (C-Raf (Y340D/Y341D)): 3.3 nM

O=C1CCc2c(Oc3ccc4c(c3)C3C(O4)C3c3nc4ccc(Cl)cc4[nH]3)ccnc2N1 (stereo not drawn) [Compound 2.12]
IC50 (B-Raf (V600E); [1]): 12 nM | IC50 (C-Raf (Y340D/Y341D)): 4.1 nM

O=C1CCc2c(Oc3ccc4c(c3)C3C(O4)C3c3nc4ccc(Br)cc4[nH]3)ccnc2N1 (stereo not drawn) [Compound 2.13]
IC50 (B-Raf (V600E); [1]): 7.2 nM | IC50 (C-Raf (Y340D/Y341D)): 1.7 nM

O=C1CCc2c(Oc3ccc4c(c3)C3C(O4)C3c3nc4ccc(OC(F)(F)F)cc4[nH]3)ccnc2N1 (stereo not drawn) [Compound 2.14]
IC50 (B-Raf (V600E); [1]): 28 nM | IC50 (C-Raf (Y340D/Y341D)): 9.7 nM

O=C1CCc2c(Oc3ccc4c(c3)C3C(O4)C3c3nc4cc5c(cc4[nH]3)CCC5)ccnc2N1 (stereo not drawn) [Compound 2.21]
IC50 (B-Raf (V600E); [1]): 1.2 nM
